Entries after “also recorded” stand apart in the source; their conditions may differ. Read-outs that look alike come from different tables or passages of the source.
How the values were obtained:
GSK-3β = settings: cited from earlier work
AChE [1] = biological target: T1, AChE (Electrophorus electricus, UniProt O42275); design: method as in PMID 34024109; settings: value of the design leads (abstract, Figure 2); cited from earlier work
AChE [2] = biological target: T1, AChE; assay: biochemical; design: species or system electric eel
Experimental: The inhibitory activities of the compounds on AChE were determined by an Ellman assay. First, 20 μL of phosphate buffer was added to a 96-well plate. Then, compounds of different concentrations (20 μL), 100μL of 1mM DTNB, and 40 μL of AChE solution (2 U/mL) were added successively. The plate was incubated at 37 °C for 15 min. Briefly, 20 μL of acetylthiocholine iodide (1 mM) was added to the mixed solution. The plate was incubated at 25 °C for 20 min. The reaction was terminated by adding 3% SDS to each well. […] The inhibition of each compound was calculated using the formula (1 − Ai/Ac) × 100, where Ai and Ac represent the absorbance of the reaction mixture in the presence and absence of inhibitors, respectively. The IC50 values of all target compounds were calculated by using Graph Pad Prism 9.5.

recombinant human GSK-3β = biological target: T2, recombinant human GSK-3β (Homo sapiens, UniProt P49841); assay: GSK-3β inhibition (luciferin kinase detection); type: biochemical
T2 construct: purchased
Experimental: Add ATP and substrate polypeptide to the reaction template for GSK-3β under the most suitable enzyme reaction system and conditions, let the enzyme react with ATP and substrate polypeptide, and use luciferin kinase detection technology to detect enzyme activity. All the compounds to be tested were prepared by adding DMSO to a solution with a concentration of 10^−2 mol/L and diluted with PBS to the required concentration when used; the purchased GSK-3β was diluted from 1600 ng/μL to 2 ng/μL, ready for use.

HepG2 cells = assay: Hepatotoxicity on HepG2 cells (MTT assay); type: cell-based; settings: concentrations of up to 20 μM
Experimental: HepG2 cells were cultured in DMEM supplemented with 10% FBS and 100 U/mL of penicillin-streptomycin (Thermo, Waltham, MA, USA) at 37 °C in a humidified atmosphere containing 5% CO2.
HepG2 cells were seeded in 96-well plates at a density of 2 × 10^4 cells per well. After 24 h, different concentrations of tacrine or compound 18a (1 μM, 5 μM, 10 μM, and 20 μM) and DMSO were added to the wells. MTT assay was performed, and the survival percentage of cells was calculated.

AChE [3] = biological target: T1, AChE; assay: Kinetic study of AChE inhibition (Lineweaver–Burk); type: biochemical; settings: Lineweaver–Burk plots; 0.02, 0.04, 0.08 μM inhibitor
Experimental: In 96-well plates, 20μL of PBS, compound 18a (20 μL) with three final concentrations (0.02 μM, 0.04 μM, and 0.08 μM), 20 μL of acetylthiocholine iodide (50–300 μM), and 40 μL of AChE (2 U/mL) were added successively. After incubation at 37 °C for 15 min, 100 μL of DTNB (1 mM) was added. A microplate reader (Thermo, Waltham, MA, USA) was used to record the absorbance at 405 nm. Lineweaver–Burk reciprocal plots were created by graphing 1/V vs. 1/[S] by using GraphPad Prism 9.5.

[4] = system: SH-SY5Y neuroblastoma cells; assay: Cytotoxicity on SH-SY5Y cells (MTT assay); type: cell-based, human; settings: concentrations of up to 25 μM
Experimental: SH-SY5Y cells were cultured in Dulbecco’s modified Eagle medium (DMEM) with F12 (KeyGEN BioTECH, Nanjing, China), supplemented with 10% (v/v) fetal bovine serum (FBS) (Sen Bei Jia) and antibiotics (penicillin streptomycin) (KeyGEN BioTECH, Nanjing, China). Cells were kept at 37 °C and 5% CO2 in a humidified atmosphere in a cell culture incubator and passaged twice a week.
The cytotoxicity assay on SH-SY5Y cells was the same as in our previous studies. Cells were seeded in a 96-well plate, and the medium was removed after 24 h. Compound 18a (3.125 μM, 6.25 μM, 12.5 μM, and 25 μM) was added to each well. After treatment for 24 h, 10 μL of 3-(4,5-dimethyl-2-thiazolyl)-2,5-diphenyl-2-H-tetrazolium bromide was added to each well. After incubation at 37 °C for 4 h, 100 μL of DMSO was added, and the absorbance of the mixture was determined at 590 nm using a microplate reader (FC/K3, Thermo, Waltham, MA, USA). We used the formula Ae/Ab 100% to calculate the survival rate, where Ae and Ab represent the absorbance in the presence and absence of the tested drugs. Each experiment was carried out three times in total.

[5] = AChE from electric eel, mean of three independent determinations, read-out: IC50 (μM) ± SEM AChE
[6] = recombinant human GSK-3β, mean of three independent determinations, read-out: IC50 (μM) ± SEM GSK-3β

T2 sequence (P49841 whole entry): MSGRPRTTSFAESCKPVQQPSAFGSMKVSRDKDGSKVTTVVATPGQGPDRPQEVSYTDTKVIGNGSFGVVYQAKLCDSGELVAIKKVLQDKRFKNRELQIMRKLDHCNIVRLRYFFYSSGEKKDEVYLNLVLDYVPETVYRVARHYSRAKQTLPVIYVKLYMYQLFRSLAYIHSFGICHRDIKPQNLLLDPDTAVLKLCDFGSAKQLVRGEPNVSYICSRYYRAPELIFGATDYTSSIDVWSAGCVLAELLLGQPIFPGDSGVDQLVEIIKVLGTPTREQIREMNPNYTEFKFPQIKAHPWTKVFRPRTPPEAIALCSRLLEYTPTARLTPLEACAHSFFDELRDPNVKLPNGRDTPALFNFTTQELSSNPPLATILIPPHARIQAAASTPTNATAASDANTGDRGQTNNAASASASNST
T1 sequence (O42275 24-633): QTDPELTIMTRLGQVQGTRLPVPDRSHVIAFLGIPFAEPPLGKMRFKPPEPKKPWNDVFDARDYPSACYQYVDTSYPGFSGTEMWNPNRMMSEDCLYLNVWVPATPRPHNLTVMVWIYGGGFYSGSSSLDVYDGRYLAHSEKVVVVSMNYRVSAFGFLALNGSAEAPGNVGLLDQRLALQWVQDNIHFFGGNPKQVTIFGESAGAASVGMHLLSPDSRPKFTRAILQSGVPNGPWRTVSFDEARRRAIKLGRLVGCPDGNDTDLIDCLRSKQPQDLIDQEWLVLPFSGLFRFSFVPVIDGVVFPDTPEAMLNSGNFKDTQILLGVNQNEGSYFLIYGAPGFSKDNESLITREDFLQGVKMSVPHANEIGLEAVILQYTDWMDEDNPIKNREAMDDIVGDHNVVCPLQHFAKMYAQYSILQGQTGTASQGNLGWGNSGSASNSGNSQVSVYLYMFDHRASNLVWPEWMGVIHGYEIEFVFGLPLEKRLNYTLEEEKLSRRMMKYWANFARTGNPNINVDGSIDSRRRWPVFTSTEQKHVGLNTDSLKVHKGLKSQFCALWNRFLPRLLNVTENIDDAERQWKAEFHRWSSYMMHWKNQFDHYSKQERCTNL

Row | Structure (SMILES) | IC50 (AChE [2]; [5]) [µM] | IC50 (recombinant human GSK-3β; [6]) [µM] | also measured
1 | Cc1nc(-c2ccncc2)cc(=O)[nH]1 [Compound 5] | – | – | IC50 (GSK-3β; pyrimidone lead compound 5): 3000 nM
2 | Cn1c(NCCCCCCCNc2c3c(nc4cc(Cl)ccc24)CCCC3)nc(-c2ccncc2F)cc1=O [Compound 7] | – | – | IC50 (GSK-3β; previous hybrid compound 7): 89 nM; IC50 (AChE [1]): 51 nM
3 | Cn1c(SCCNc2c3c(nc4cc(Cl)ccc24)CCCC3)nc(-c2ccncc2)cc1=O [Compound 16a, 2-((2-((6-Chloro-1,2,3,4-tetrahydroacridin-9-yl)amino)ethyl)thio)-3-methyl-6-(pyridin-4-yl)pyrimidin-4(3H)-one] | 2.3 ± 0.14 | 15.1 ± 0.9 | –
4 | Cn1c(SCCNc2c3c(nc4ccc(Br)cc24)CCCC3)nc(-c2ccncc2)cc1=O [Compound 16b, 2-((2-((7-Bromo-1,2,3,4-tetrahydroacridin-9-yl)amino)ethyl)thio)-3-methyl-6-(pyridin-4-yl)pyrimidin-4(3H)-one] | 20 ± 1.5 | 38.5 ± 0.7 | –
5 | Cn1c(SCCNc2c3c(nc4ccc(Cl)cc24)CCCC3)nc(-c2ccncc2)cc1=O [Compound 16c, 2-((2-((7-Chloro-1,2,3,4-tetrahydroacridin-9-yl)amino)ethyl)thio)-3-methyl-6-(pyridin-4-yl)pyrimidin-4(3H)-one] | 10.3 ± 0.7 | 2.28 ± 0.07 | –
6 | Cn1c(SCCNc2c3c(nc4cc(Cl)ccc24)CCCC3)nc(-c2ccncc2F)cc1=O [Compound 16d, 2-((2-((6-Chloro-1,2,3,4-tetrahydroacridin-9-yl)amino)ethyl)thio)-6-(3-fluoropyridin-4-yl)-3-methylpyrimidin-4(3H)-one] | 1.89 ± 0.21 | 1.69 ± 0.09 | –
7 | Cn1c(SCCNc2c3c(nc4ccc(Br)cc24)CCCC3)nc(-c2ccncc2F)cc1=O [Compound 16e, 2-((2-((7-Bromo-1,2,3,4-tetrahydroacridin-9-yl)amino)ethyl)thio)-6-(3-fluoropyridin-4-yl)-3-methylpyrimidin-4(3H)-one] | 15.3 ± 0.9 | 0.94 ± 0.02 | –
8 | Cn1c(SCCNc2c3c(nc4ccc(Cl)cc24)CCCC3)nc(-c2ccncc2F)cc1=O [Compound 16f, 2-((2-((7-Chloro-1,2,3,4-tetrahydroacridin-9-yl)amino)ethyl)thio)-6-(3-fluoropyridin-4-yl)-3-methylpyrimidin-4(3H)-one] | – | – | IC50 (AChE [2]): 16.5 ± 0.8 µM; IC50 (recombinant human GSK-3β): 2.44 ± 0.06 µM
9 | Cn1c(NCCSSCCNc2c3c(nc4cc(Cl)ccc24)CCCC3)nc(-c2ccncc2)cc1=O [Compound 18a, 2-((2-((2-((6-Chloro-1,2,3,4-tetrahydroacridin-9-yl)amino)ethyl)disulfanyl)ethyl)amino)-3-methyl-6-(pyridin-4-yl)pyrimidin-4(3H)-one] | 0.047 ± 0.002 | 0.93 ± 0.08 | hepatotoxicity on HepG2 cells (HepG2 cells): no significant hepatotoxicity; inhibition mode against AChE (AChE [3]): mixed type; toxicity to SH-SY5Y neuroblastoma cells [4]: lack of toxicity; also recorded: no toxicity
10 | Cn1c(NCCSSCCNc2c3c(nc4ccc(Br)cc24)CCCC3)nc(-c2ccncc2)cc1=O [Compound 18b, 2-((2-((2-((7-Bromo-1,2,3,4-tetrahydroacridin-9-yl)amino)ethyl)disulfanyl)ethyl)amino)-3-methyl-6-(pyridin-4-yl)pyrimidin-4(3H)-one] | 2.13 ± 0.11 | 0.37 ± 0.02 | –
11 | Cn1c(NCCSSCCNc2c3c(nc4ccc(Cl)cc24)CCCC3)nc(-c2ccncc2)cc1=O [Compound 18c, 2-((2-((2-((7-Chloro-1,2,3,4-tetrahydroacridin-9-yl)amino)ethyl)disulfanyl)ethyl)amino)-3-methyl-6-(pyridin-4-yl)pyrimidin-4(3H)-one] | 2.24 ± 0.13 | 0.42 ± 0.03 | –

From publication PMC11051924, “Design, Synthesis, and Biological Evaluation of Novel Tetrahydroacridin Hybrids with Sulfur-Inserted Linkers as Potential Multitarget Agents for Alzheimer’s Disease” (Molecules, 2024)
